Test results reported in paper PMC5076529, “Binding Sites for Acylated Trehalose Analogs of Glycolipid Ligands on an Extended Carbohydrate Recognition Domain of the Macrophage Receptor Mincle” (The Journal of Biological Chemistry, 2016).

How the values were obtained:
[1] = molecular target: T1, mincle minimal CRD (bovine) (Bos taurus, UniProt E1BHM0, I174T); experiment: X-ray crystallography, […] Å; details: pH 5.6; primary sugar-binding site, conserved Ca2+; acyl chain only partly visible
T1 construct: gene CLEC4E; minimal C-type carbohydrate recognition domain, N-terminally truncated, lacks disulfide 4; E. coli, renatured from inclusion bodies
T1 sequence (E1BHM0 79-211 I174T): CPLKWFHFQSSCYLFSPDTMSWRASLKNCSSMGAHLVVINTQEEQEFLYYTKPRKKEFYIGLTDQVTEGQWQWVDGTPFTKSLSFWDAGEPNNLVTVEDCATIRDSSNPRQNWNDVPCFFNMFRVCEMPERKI

[2] = molecular target: T1, mincle minimal CRD (bovine); experiment: competition with […]-mannose-BSA on immobilized CRD; assay type: binding
[3] = molecular target: T2, mincle extended CRD (bovine) (Bos taurus, UniProt E1BHM0, I174T); experiment: X-ray crystallography, […] Å; details: pH 5.6 reservoir; primary sugar-binding site, conserved Ca2+; second substituent not visible
T2 construct: gene CLEC4E; extended CRD from Glu-64 to C terminus with one extra N-terminal Ala, includes disulfide 4; E. coli BL21(DE3) inclusion bodies, renatured, trehalose-Sepharose
T2 sequence (E1BHM0 64-211 I174T): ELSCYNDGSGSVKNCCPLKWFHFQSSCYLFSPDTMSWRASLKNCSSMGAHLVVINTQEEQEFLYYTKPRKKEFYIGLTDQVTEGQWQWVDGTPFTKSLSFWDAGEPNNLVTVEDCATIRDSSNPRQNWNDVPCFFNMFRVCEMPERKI

[4] = molecular target: T2, mincle extended CRD (bovine); experiment: X-ray crystallography, […] Å; details: pH 5.5 reservoir; primary sugar-binding site, conserved Ca2+

| Ki [2] | Compound | further results |
| --- | --- | --- |
|  | CCCC(=O)OC[C@H]1O[C@H](O[C@H]2O[C@H](CO)[C@@H](O)[C@H](O)[C@H]2O)[C@H](O)[C@@H](O)[C@@H]1O [trehalose monobutyrate] | X-ray crystallography, 2.10 Å [1]: Co-crystals of trehalose monobutyrate and the CRD of mincle were examined |
| 3.1 ± 0.5 µM | CCCCCCCCCCCC(=O)OC[C@H]1O[C@H](O[C@H]2O[C@H](CO)[C@@H](O)[C@H](O)[C@H]2O)[C@H](O)[C@@H](O)[C@@H]1O [Monododecanoate] |  |
| 8.2 ± 0.3 µM | CCCCCC(=O)OC[C@H]1O[C@H](O[C@H]2O[C@H](COC(=O)CCCCC)[C@@H](O)[C@H](O)[C@H]2O)[C@H](O)[C@@H](O)[C@@H]1O [Dihexanoate] |  |
| 370 ± 40 µM | CC(C)C(=O)OC[C@H]1O[C@H](O[C@H]2O[C@H](COC(=O)C(C)C)[C@@H](O)[C@H](O)[C@H]2O)[C@H](O)[C@@H](O)[C@@H]1O [Diisobutyrate] |  |
| 137 ± 18 µM | CCCCCCC(=O)OC[C@H]1O[C@H](O[C@H]2O[C@H](CO)[C@@H](O)[C@H](O)[C@H]2O)[C@H](O)[C@@H](O)[C@@H]1O [Monoheptanoate] |  |
|  | COc1cccc(C(=O)OC[C@H]2O[C@H](O[C@H]3O[C@H](COC(=O)c4cccc(OC)c4OC)[C@@H](O)[C@H](O)[C@H]3O)[C@H](O)[C@@H](O)[C@@H]2O)c1OC [brartemicin analog] | X-ray crystallography, 1.80 Å [3]: The structure of mincle bound to a synthetic analog of brartemicin was also examined |
| 59 ± 2 µM | CCCCC(=O)OC[C@H]1O[C@H](O[C@H]2O[C@H](COC(=O)CCCC)[C@@H](O)[C@H](O)[C@H]2O)[C@H](O)[C@@H](O)[C@@H]1O [Divalerate] |  |
| 5.1 ± 0.6 µM | CCCCCCCCCC(=O)OC[C@H]1O[C@H](O[C@H]2O[C@H](CO)[C@@H](O)[C@H](O)[C@H]2O)[C@H](O)[C@@H](O)[C@@H]1O [Monodecanoate] |  |
|  | Cc1cc(O)cc(O)c1C(=O)OC[C@H]1O[C@H](O[C@H]2O[C@H](COC(=O)c3c(C)cc(O)cc3O)[C@@H](O)[C@H](O)[C@H]2O)[C@H](O)[C@@H](O)[C@@H]1O [brartemicin] | X-ray crystallography, 2.20 Å [4]: structures of the extended CRD bound to either natural brartemicin or a synthetic analog |
